Measurements from the supplement of paper PMC13380429.

How the values were obtained:
Details in all cases: 72 h
U2OS [1] = experiment: relative viability EC50 (midpoint between 100% and the lowest measured viability); higher = less toxic
HepG2 [2] = experiment: as above
Calu-3 [3] = experiment: as above
Vero E6 [4] = experiment: as above
Caco-2 [5] = experiment: as above
U2OS [6] = experiment: drug sensitivity score (DSS) for viability; higher = more toxic; extreme values may be limits of the assay
HepG2 [7] = experiment: as above
Calu-3 [8] = experiment: as above
Vero E6 [9] = experiment: as above
Caco-2 [10] = experiment: as above
U2OS [11] = experiment: cell viability relative to DMSO; higher = less toxic
HepG2 [12] = experiment: as above
Calu-3 [13] = experiment: as above
Vero E6 [14] = experiment: as above
Caco-2 [15] = experiment: as above

| SMILES | relative viability EC50 (U2OS [1]) [µM] | relative viability EC50 (HepG2 [2]) [µM] | relative viability EC50 (Calu-3 [3]) [µM] | relative viability EC50 (Vero E6 [4]) [µM] | relative viability EC50 (Caco-2 [5]) [µM] | drug sensitivity score (U2OS [6]) | drug sensitivity score (HepG2 [7]) | drug sensitivity score (Calu-3 [8]) | drug sensitivity score (Vero E6 [9]) | drug sensitivity score (Caco-2 [10]) | cell viability (U2OS [11]; 1 nM) [%] | cell viability (U2OS [11]; 10 nM) [%] | cell viability (U2OS [11]; 100 nM) [%] | cell viability (U2OS [11]; 1000 nM) [%] | cell viability (U2OS [11]; 10000 nM) [%] | cell viability (HepG2 [12]; 1 nM) [%] | cell viability (HepG2 [12]; 10 nM) [%] | cell viability (HepG2 [12]; 100 nM) [%] | cell viability (HepG2 [12]; 1000 nM) [%] | cell viability (HepG2 [12]; 10000 nM) [%] | cell viability (Calu-3 [13]; 1 nM) [%] | cell viability (Calu-3 [13]; 10 nM) [%] | cell viability (Calu-3 [13]; 100 nM) [%] | cell viability (Calu-3 [13]; 1000 nM) [%] | cell viability (Calu-3 [13]; 10000 nM) [%] | cell viability (Vero E6 [14]; 1 nM) [%] | cell viability (Vero E6 [14]; 10 nM) [%] | cell viability (Vero E6 [14]; 100 nM) [%] | cell viability (Vero E6 [14]; 1000 nM) [%] | cell viability (Vero E6 [14]; 10000 nM) [%] | cell viability (Caco-2 [15]; 1 nM) [%] | cell viability (Caco-2 [15]; 10 nM) [%] | cell viability (Caco-2 [15]; 100 nM) [%] | cell viability (Caco-2 [15]; 1000 nM) [%] | cell viability (Caco-2 [15]; 10000 nM) [%] |
| --- | --- | --- | --- | --- | --- | --- | --- | --- | --- | --- | --- | --- | --- | --- | --- | --- | --- | --- | --- | --- | --- | --- | --- | --- | --- | --- | --- | --- | --- | --- | --- | --- | --- | --- | --- |
| O=c1c(-n2ccnn2)c[nH]n1-c1cc(N2CCOCC2)ncn1 [molidustat] | > 10 | > 10 | > 10 | > 10 | > 10 | 0 | 0 | 0 | 0 | 0 | 98.1 | 97.7 | 94.7 | 103 | 91.4 | 104 | 95.4 | 94.8 | 93.2 | 95.3 | 78.6 | 97.9 | 87.8 | 104 | 88 | 108 | 99.4 | 104 | 95.8 | 90.9 | 100 | 107 | 100 | 97.2 | 96 |
| CCOC(=O)C1=C(C)NC(=S)NC1c1cccc(O)c1 (stereo not given) [monastrol] | > 10 | > 10 | > 10 | > 10 | > 10 | 0 | 0 | 0 | 0 | 0 | 103 | 99 | 103 | 98.7 | 104 | 99.3 | 107 | 96.2 | 99.4 | 101 | 89.7 | 95.1 | 95.6 | 100 | 103 | 104 | 108 | 102 | 97.6 | 97.9 | 103 | 94.6 | 94.1 | 96 | 96.8 |
| CCCCN1CCCC1CNC(=O)c1cc(C#N)c2ccccc2c1OC (stereo not given) [nafadotride] | > 10 | > 10 | > 10 | > 10 | > 10 | 0 | 0 | 0 | 0 | 0 | 98.3 | 101 | 104 | 101 | 92.2 | 104 | 103 | 105 | 97.5 | 96.7 | 102 | 106 | 87.2 | 105 | 97.1 | 102 | 96.8 | 105 | 100 | 92.5 | 98.8 | 97.6 | 97.4 | 104 | 102 |
| Cc1cccc(C)c1NC(=O)CN1CCCC1=O [nefiracetam] | > 10 | > 10 | > 10 | > 10 | > 10 | 0 | 0 | 0 | 0 | 0 | 96.5 | 93.3 | 102 | 97.2 | 102 | 102 | 104 | 96.9 | 102 | 100 | 104 | 104 | 97.2 | 108 | 98.7 | 94.5 | 106 | 92.6 | 102 | 111 | 98.3 | 91.2 | 105 | 101 | 91.2 |
| COc1nc(N)nc2c1ncn2[C@@H]1O[C@H](CO)[C@@H](O)[C@@H]1O [nelarabine] | > 10 | > 10 | > 10 | > 10 | > 10 | 0 | 0 | 0 | 0 | 0 | 103 | 97.5 | 98.5 | 95.6 | 102 | 105 | 104 | 105 | 95.9 | 109 | 115 | 101 | 94.8 | 92.3 | 107 | 97.4 | 97.3 | 99.5 | 97.6 | 98.5 | 97.3 | 98 | 101 | 98.6 | 104 |
| COc1ccc([C@@H]2CC(=O)c3c(O)cc(O[C@@H]4O[C@H](CO)[C@@H](O)[C@H](O)[C@H]4O[C@@H]4O[C@@H](C)[C@H](O)[C@@H](O)[C@H]4O)cc3O2)cc1O [neohesperidin] | > 10 | > 10 | > 10 | > 10 | > 10 | 0 | 0 | 0 | 0 | 0 | 96.7 | 98.8 | 97.2 | 96 | 108 | 102 | 97.8 | 103 | 99.3 | 101 | 102 | 91.1 | 95.7 | 101 | 102 | 98.2 | 92.8 | 93.6 | 95.9 | 104 | 94.5 | 99.5 | 99.4 | 90.1 | 99.3 |
| CO[C@]12C[C@@H](COC(=O)c3cncc(Br)c3)CN(C)[C@@H]1Cc1cn(C)c3cccc2c13 [nicergoline] | > 10 | > 10 | > 10 | > 10 | > 10 | 0 | 0 | 0 | 0 | 0 | 97.1 | 94.8 | 100 | 95.4 | 96.8 | 111 | 101 | 102 | 118 | 98.2 | 108 | 112 | 111 | 99.7 | 96.6 | 93.7 | 101 | 92.6 | 97.4 | 108 | 97.7 | 96 | 102 | 95 | 95.4 |
| CCN(CC)Cc1nccn1-c1ccc([N+](=O)[O-])cc1C(=O)c1ccccc1Cl [nizofenone] | > 10 | > 10 | > 10 | > 10 | > 10 | 0 | 0 | 0 | 0 | 0.3 | 105 | 102 | 97.1 | 102 | 98.7 | 100 | 96 | 98.4 | 95.7 | 95.5 | 93.3 | 105 | 98.8 | 105 | 99.5 | 102 | 100 | 104 | 102 | 92.9 | 124 | 92.8 | 81.8 | 108 | 81.1 |
| Cc1c(Cl)c(C)[n+]([O-])c(Cl)c1-c1noc(-c2cc(O)c(O)c([N+](=O)[O-])c2)n1 [opicapone] | > 10 | > 10 | > 10 | > 10 | > 10 | 0 | 0.4 | 0 | 0 | 0 | 100 | 104 | 94.4 | 102 | 104 | 108 | 103 | 110 | 88.1 | 97.9 | 84.3 | 106 | 95.3 | 102 | 105 | 97.3 | 96.6 | 96.3 | 98.6 | 95.8 | 87.3 | 99 | 93.8 | 111 | 95.4 |
| CCCCCCCCCCC[C@@H](C[C@@H]1OC(=O)[C@H]1CCCCCC)OC(=O)[C@H](CC(C)C)NC=O [orlistat] | > 10 | > 10 | > 10 | > 10 | > 10 | 0 | 0 | 0 | 0 | 0 | 96 | 97.2 | 92.6 | 105 | 105 | 104 | 106 | 108 | 96.7 | 100 | 103 | 97.4 | 110 | 102 | 103 | 96.2 | 98.2 | 89.9 | 82.8 | 102 | 111 | 98.5 | 99.9 | 99 | 94.9 |
| CC(C)C[C@H](NC(=O)[C@H](CCCCN)NC(=O)[C@H](CCCNC(=N)N)NC(=O)[C@H](C)NC(=O)[C@H](CO)NC(=O)[C@H](CCCCN)NC(=O)[C@H](CCCNC(=N)N)NC(=O)[C@H](C)NC(=O)CNC(=O)[C@@H](NC(=O)[C@H](Cc1ccccc1)NC(=O)CNC(=O)CNC(=O)[C@@H](N)Cc1ccccc1)[C@@H](C)O)C(=O)N[C@@H](C)C(=O)N[C@@H](CC(N)=O)C(=O)N[C@@H](CCC(N)=O)C(=O)O [orphanin-fq] | > 10 | > 10 | > 10 | > 10 | > 10 | 0 | 0 | 0 | 0 | 0 | 98.1 | 93.3 | 97.7 | 97.5 | 96.1 | 94.3 | 97.4 | 94.5 | 98.7 | 106 | 104 | 107 | 101 | 112 | 96.8 | 92.2 | 99.7 | 95.3 | 97.1 | 98.6 | 90.9 | 93.6 | 104 | 106 | 96.5 |
| CCN(CC)CC1CCCCN1CC(=O)N1c2ccccc2C(=O)Nc2cccnc21 (stereo not given) [otenzepad] | > 10 | > 10 | > 10 | > 10 | > 10 | 0 | 0 | 0 | 0 | 0 | 100 | 102 | 102 | 100 | 97.4 | 94.3 | 104 | 92.3 | 101 | 98.9 | 102 | 105 | 96 | 96.3 | 101 | 97.8 | 97 | 95.7 | 92.4 | 99.5 | 104 | 104 | 108 | 97.6 | 98.8 |
| O=C1CCC[C@@H]2[C@H]3CCC[N+]4([O-])CCC[C@@H](CN12)[C@@H]34 (stereo not given in full) [oxymatrine] | > 10 | > 10 | > 10 | > 10 | > 10 | 0 | 0 | 0 | 0 | 0 | 97.8 | 106 | 98 | 102 | 96.7 | 104 | 97.6 | 98.5 | 96.3 | 108 | 89 | 93.1 | 101 | 91.7 | 86.9 | 102 | 97.5 | 101 | 98.4 | 104 | 97.1 | 103 | 96.6 | 95.5 | 88.3 |
